Results taken from patent publication US11242327B2, “Analgesic compounds” (RECURIUM IP HOLDINGS, LLC, priority 2017, dated 2022).

How the values were obtained:
male Sprague-Dawley rats [1] = assay: Formalin Paw Test, rat, oral; type: in vivo; details: 30 mg/kg
Procedure, shortened: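 Paw licking recorded every 5 min for 35 min after formalin injection, in groups of 8 non-fasted males: Sprague-Dawley rats (200–225 g) dosed orally or ICR mice (23±3 g) dosed intraperitoneally. Scores are licking-time bins: A <70 s, B 70–165 s, C >165 s.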

Opiate κ = Opiate κ (Homo sapiens, UniProt P41145); assay: NSAIDS and Opioid Receptor Test: Opiate κ; type: binding; details: 10 μM
Procedure: Compounds were screened as DMSO solutions at 10 μM, 100 μM, or 200 μM and values represent percent inhibition of control-specific binding. […] As NSAID and opioid mechanisms of action are precluded, a person of ordinary skill in the art understands that undesirable side effects associated with inhibition of COX receptors in NSAIDs and activation of opiate receptors in opioids can be avoided by compounds described herein. Furthermore, opioids are known to lose their analgesic potency after to continued administration. (See Benyamin, et al. “Opioid Complications and Side Effects” Pain Physician 11 (2008): S105-S120). As the data indicates compounds described herein have a different mechanism action compared to opioids, a person of ordinary skill in the art would appreciate that compounds described herein would not be expected to lose their analgesic potency like opioids after continued admininistration.

male Sprague-Dawley rats [2] = assay: Osteoarthritis Pain Test (MIA, mechanical hyperalgesia); type: in vivo; details: rat; for joint compression threshold, Day 3, 1 h: Day 3, 1 h post-dosing; for joint compression threshold, Day 3, 2 h: Day 3, 2 h post-dosing; for joint compression threshold, Day 3, 4 h: Day 3, 4 h post-dosing; for joint compression threshold, Day 6, 1 h: Day 6, 1 h post-dosing; for joint compression threshold, Day 6, 2 h: Day 6, 2 h post-dosing; for joint compression threshold, Day 6, 4 h: Day 6, 4 h post-dosing; for joint compression threshold, Day 0, 1 h: Day 0, 1 h post-dosing; for joint compression threshold, Day 0, 2 h: Day 0, 2 h post-dosing; for joint compression threshold, Day 0, 4 h: Day 0, 4 h post-dosing
Procedure: Osteoarthritis pain was induced in non-fasted male Sprague-Dawley rats weighing 150-250 g by injecting 2 mg of monosodium iodoacetate (MIA) into the left knee joint. Mechanical hyperalgesia was measured using a digital Randall-Selitto device (dRS; IITC Life Sciences©; Woodland Hills, Calif.). Animals were allowed to acclimate to the testing room for a minimum of 15 minutes before testing. Animals were placed in a restraint sling that suspended the animal, leaving the hind limbs available for testing. The stimulus was applied to the knee joint by a blunt tip and pressure was applied gradually over approximately 10 seconds. Joint compression threshold values were recorded at the first observed nocifensive behavior (vocalization, struggle, or withdrawal). One reading per joint was taken at each time point, and a maximum stimulus cutoff of 500 grams was used to prevent injury to the animal. Mechanical hyperalgesia was assessed prior to MIA injection, and again 14 days later. After 14 days, test or control articles were administered once daily for 7 days with mechanical hyperalgesia assessed prior to dosing, 1, 2, and 4 hours post-dosing on days 0, 3, and 6. Test compounds were administered orally at concentrations of 3, 10, 30 or 100 mg/kg and celecoxib was administered orally at a concentration of 30 mg/kg. The control group received the vehicle (sterile water). After day 0, groups receiving the 100 mg/kg dose were reduced to a dose of 3 mg/kg. In Table 5, ‘A’ designates ≥375 grams of joint compression, ‘B’ designates ≥325 and <375 grams of joint compression, and ‘C’ designates <325 grams of joint compression.
The results provided in Table 5 are for oral administration in rats.

male Sprague-Dawley rats [3] = assay: Spinal Nerve Ligation (SNL) Neuropathic Pain Test; type: in vivo; details: rat, oral; for 50% response threshold, 1 h: 1 h after administration; for 50% response threshold, 2 h: 2 h after administration; for 50% response threshold, 4 h: 4 h after administration
Procedure: Neuropathy was induced in non-fasted male Sprague-Dawley rats weighing 75-100 g by surgically ligating the 4th and 5th lumbar spinal nerves (L4 and L5), a procedure also known as spinal nerve ligation (SNL). Animals were placed in individual acrylic chambers on a metal mesh surface and allowed to acclimate to their surroundings for a minimum of 15 minutes before testing. Mechanical sensitivity was assessed using 8 Semmes-Weinstein filaments (Stoelting©; Wood Dale, Ill., USA) with varying stiffness (0.4, 0.6, 1.0, 2.0, 4.0, 6.0, 8.0, and 15 g) according to an up-down method to determine 50% response thresholds. Each filament was presented perpendicular to the plantar surface with sufficient force to cause slight buckling against the paw and held for approximately 6 seconds or until a positive response is noted (paw sharply withdrawn). Testing was initiated with the 2.0 g filament. In the absence of a paw withdrawal response, the next stronger stimulus was presented. In the event of paw withdrawal, the next weaker stimulus was used. This process was repeated until 4 responses after the initial change in response (no response to positive response or positive response to no response) were obtained. […] The 50% response threshold was calculated using the formula: 50% response threshold (g)=(10^(Xf+kδ))/10,000;
Xf=value (in log units) of the final von Frey filament used;
k=tabular value for the pattern of positive/negative responses (See Chaplan, et al. “Quantitative Assessment of Tactile Allodynia in the Rat Paw” J. Neurosci. Meth. 53.1 (1994): 56-63);
[…] =mean difference (in log units) between stimuli.
The mean and standard error of the mean (SEM) were determined for each paw for each treatment group at each time point. Thresholds were determined prior to surgery and again 14 days later. After 14 days, test or control compounds were administered and thresholds were again determined 1, 2, and 4 hours after compound administration. Median response thresholds in compound-treated animals were compared to those in vehicle treated animals to determine anti-allodynic efficacy of test and control compounds. Test compounds were administered orally at concentrations of 10, 30 or 100 mg/kg and gabapentin was administered orally at a concentration of 100 mg/kg. The control group received the vehicle (sterile water). In Table 7, ‘A’ designates a 50% threshold of ≥8 grams, ‘B’ designates a 50% threshold of ≥6 and <8 grams, and ‘C’ designates a 50% threshold of <6 grams.
The results provided in Table 7 are for oral administration in rats.

[4] = oral once daily, 3 mg/kg (group had 100 mg/kg on day 0)

Sequence of Opiate κ (P41145 whole entry): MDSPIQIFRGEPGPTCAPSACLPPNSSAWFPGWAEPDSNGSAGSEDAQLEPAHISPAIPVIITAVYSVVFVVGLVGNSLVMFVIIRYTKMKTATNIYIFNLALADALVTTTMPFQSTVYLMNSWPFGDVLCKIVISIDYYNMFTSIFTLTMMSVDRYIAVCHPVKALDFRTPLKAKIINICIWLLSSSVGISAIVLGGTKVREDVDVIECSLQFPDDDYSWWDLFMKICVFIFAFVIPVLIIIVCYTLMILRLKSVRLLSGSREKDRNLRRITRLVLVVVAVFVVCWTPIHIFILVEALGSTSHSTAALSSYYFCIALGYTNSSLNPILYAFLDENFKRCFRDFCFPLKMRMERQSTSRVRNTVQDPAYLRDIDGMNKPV

Cl.NC12CC(c3nc(C(F)(F)F)cs3)(C1)C2 [Compound 1, 3-(4-(Trifluoromethyl)thiazol-2-yl)bicyclo[1.1.1]pentan-1-amine hydrochloride]
Early Phase, seconds of paw licking (male Sprague-Dawley rats [1]; early/acute phase (0-10 minutes)): A (<70 seconds of paw licking)
Late Phase, seconds of paw licking (male Sprague-Dawley rats [1]; late/tonic phase (10-35 minutes)): B (>70 and <165 seconds of paw licking)
inhibition at 10 µM (Opiate κ): -4%
joint compression threshold, Day 3, 1 h (male Sprague-Dawley rats [2]; [4]): A (≥375 grams of joint compression)
joint compression threshold, Day 3, 2 h (male Sprague-Dawley rats [2]; [4]): A (≥375 grams of joint compression)
joint compression threshold, Day 3, 4 h (male Sprague-Dawley rats [2]; [4]): A (≥375 grams of joint compression)
joint compression threshold, Day 6, 1 h (male Sprague-Dawley rats [2]; [4]): A (≥375 grams of joint compression)
joint compression threshold, Day 6, 2 h (male Sprague-Dawley rats [2]; [4]): B (≥325 and <375 grams of joint compression)
joint compression threshold, Day 6, 4 h (male Sprague-Dawley rats [2]; [4]): A (≥375 grams of joint compression)
joint compression threshold, Day 0, 1 h (male Sprague-Dawley rats [2]; oral once daily, 10 mg/kg): B (≥325 and <375 grams of joint compression)
joint compression threshold, Day 0, 2 h (male Sprague-Dawley rats [2]; oral once daily, 10 mg/kg): C (<325 grams of joint compression)
joint compression threshold, Day 0, 4 h (male Sprague-Dawley rats [2]; oral once daily, 10 mg/kg): C (<325 grams of joint compression)
joint compression threshold, Day 3, 1 h (male Sprague-Dawley rats [2]; oral once daily, 10 mg/kg): B (≥325 and <375 grams of joint compression)
joint compression threshold, Day 3, 2 h (male Sprague-Dawley rats [2]; oral once daily, 10 mg/kg): B (≥325 and <375 grams of joint compression)
joint compression threshold, Day 3, 4 h (male Sprague-Dawley rats [2]; oral once daily, 10 mg/kg): B (≥325 and <375 grams of joint compression)
joint compression threshold, Day 6, 1 h (male Sprague-Dawley rats [2]; oral once daily, 10 mg/kg): B (≥325 and <375 grams of joint compression)
joint compression threshold, Day 6, 2 h (male Sprague-Dawley rats [2]; oral once daily, 10 mg/kg): B (≥325 and <375 grams of joint compression)
joint compression threshold, Day 6, 4 h (male Sprague-Dawley rats [2]; oral once daily, 10 mg/kg): B (≥325 and <375 grams of joint compression)
joint compression threshold, Day 0, 1 h (male Sprague-Dawley rats [2]; oral once daily, 30 mg/kg): B (≥325 and <375 grams of joint compression)
joint compression threshold, Day 0, 2 h (male Sprague-Dawley rats [2]; oral once daily, 30 mg/kg): B (≥325 and <375 grams of joint compression)
joint compression threshold, Day 0, 4 h (male Sprague-Dawley rats [2]; oral once daily, 30 mg/kg): B (≥325 and <375 grams of joint compression)
joint compression threshold, Day 3, 1 h (male Sprague-Dawley rats [2]; oral once daily, 30 mg/kg): A (≥375 grams of joint compression)
joint compression threshold, Day 3, 2 h (male Sprague-Dawley rats [2]; oral once daily, 30 mg/kg): A (≥375 grams of joint compression)
joint compression threshold, Day 3, 4 h (male Sprague-Dawley rats [2]; oral once daily, 30 mg/kg): B (≥325 and <375 grams of joint compression)
joint compression threshold, Day 6, 1 h (male Sprague-Dawley rats [2]; oral once daily, 30 mg/kg): A (≥375 grams of joint compression)
joint compression threshold, Day 6, 2 h (male Sprague-Dawley rats [2]; oral once daily, 30 mg/kg): B (≥325 and <375 grams of joint compression)
joint compression threshold, Day 6, 4 h (male Sprague-Dawley rats [2]; oral once daily, 30 mg/kg): B (≥325 and <375 grams of joint compression)
joint compression threshold, Day 0, 1 h (male Sprague-Dawley rats [2]; oral, 100 mg/kg): A (≥375 grams of joint compression)
joint compression threshold, Day 0, 2 h (male Sprague-Dawley rats [2]; oral, 100 mg/kg): A (≥375 grams of joint compression)
joint compression threshold, Day 0, 4 h (male Sprague-Dawley rats [2]; oral, 100 mg/kg): A (≥375 grams of joint compression)
50% response threshold, 1 h (male Sprague-Dawley rats [3]; 10 mg/kg): C (a 50% threshold of <6 grams)
50% response threshold, 2 h (male Sprague-Dawley rats [3]; 10 mg/kg): C (a 50% threshold of <6 grams)
50% response threshold, 4 h (male Sprague-Dawley rats [3]; 10 mg/kg): C (a 50% threshold of <6 grams)
50% response threshold, 1 h (male Sprague-Dawley rats [3]; 30 mg/kg): B (a 50% threshold of ≥6 and <8 grams)
50% response threshold, 2 h (male Sprague-Dawley rats [3]; 30 mg/kg): B (a 50% threshold of ≥6 and <8 grams)
50% response threshold, 4 h (male Sprague-Dawley rats [3]; 30 mg/kg): C (a 50% threshold of <6 grams)
50% response threshold, 1 h (male Sprague-Dawley rats [3]; 100 mg/kg): A (a 50% threshold of ≥8 grams)
50% response threshold, 2 h (male Sprague-Dawley rats [3]; 100 mg/kg): A (a 50% threshold of ≥8 grams)
50% response threshold, 4 h (male Sprague-Dawley rats [3]; 100 mg/kg): A (a 50% threshold of ≥8 grams)
